Measured values from patent US11911394B2, “Compound and method for the prevention of transmission of influenza virus” (Hoffmann-La Roche Inc., priority 2019, dated 2024).
Where two headings read alike, the source gives them in different places.

Assays:
[1] = Example 2 antiviral pharmacokinetic analysis, endpoint donor plasma; format: in vivo; details: ferret, sc, 4 mg/kg, 4 mg/kg s.c., read-out: baloxavir in plasma ±SD
Experimental: The active form baloxavir acid (S-033447, hereafter BXA) and pro-drug oseltamivir phosphate (hereafter OST) was kindly provided by Shionogi & Co., Ltd., Japan. The vehicle for BXA delivery was methyl cellulose (Sigma-Aldrich, Australia) in 0.5 w/v % aqueous solution prepared with sterile water (hereafter MC solution). BXA in suspension with MC solution (1 mg/mL) was prepared using an agate mortar and pestle, and was delivered to reversibly anaesthetised animals in a single treatment consisting of 4 subcutaneous injections at 4 locations on the dorsal region (total dose 4 mg/kg per animal). Animals in the placebo group were dosed identically using MC solution (1 mL/kg) alone. OST doses (10 mg/mL) were prepared in sugar solution (1 g/mL) and delivered bis in die (8 hr interval) to non-sedated ferrets by the oral route (total dose 10 mg/kg/day).
Endpoint BXA and placebo-treated donor blood samples were collected in heparinised tubes, and plasma isolated by centrifugation. Plasma samples were stored at −80° C. until transport to analytical facilities at Shionogi & Co., Ltd.
Experiment 1: Antiviral treatment for all donors commenced at 1 DPI, and naïve recipient ferrets were co-housed immediately following treatment. Body weight and temperature were monitored daily from all animals. Daily nasal wash samples were collected 1 mL of PBS from 1 DPI to 3 DPI for donor animals, and 1 day post exposure (DPE) to 10 DPE for recipient animals. Donors were sacrificed at 3 DPI (2 DPE), and blood was collected from BXA- and placebo-treated ferrets by cardiac puncture. Recipients were sacrificed at 10 DPE.
Experiment 2: Antiviral treatment commenced at 1 DPI, and recipient co-housing was delayed until 24 hr following treatment (2 DPI). Body weight and temperature were monitored daily from all animals. […]
Experiment 3: Antiviral treatment commenced at 2 DPI, and recipients were co-housed immediately afterwards. Body weight and temperature were monitored daily from all animals. […]

[2] = Example 5 pharmacokinetic analysis in ferret, plasma concentration by LC-MS/MS; format: in vivo
Experimental: Outbred female and ferrets 28 months old and weighing between 650-802 g were obtained from Japan SLC, Inc. Identification was conducted by labeling sequential number in front of each cage. Animals were monitored at least once daily for their clinical observations, and had ad libitum access to pellet feed (LabDiet High Density Ferret Diet, Lab Supply, USA) and water. Ferrets at endpoint were euthanized by exsanguination under anesthesia by inhalation with isoflurane (Pfizer). Ferret studies were performed in Shionogi Pharmaceutical Research Center, Shionogi & Co., Ltd. (Osaka, Japan), according to the animal study protocol which was approved by the Institutional Animal Care and Use Committee in Shionogi.
The active form baloxavir acid (S-033447, hereafter BXA) was provided by Test Substance Control Personnel, Shionogi & Co., Ltd., Japan. The vehicle for BXA delivery was methyl cellulose (Fuji-Film Wako, Japan) in 0.5 w/v % aqueous solution prepared with sterile water (hereafter MC solution). BXA in suspension with MC solution (1 mg/mL) was prepared using an agate mortar and pestle, and was delivered to reversibly anaesthetised animals in a single treatment consisting of 4 subcutaneous injections at 4 locations on the dorsal region (total dose 4 mg/kg per animal). […]
The plasma concentration of BXA was determined by LC-MS/MS, consisting of LC-20A system (Shimadzu Corporation, Japan) and API 5000 (AB SCIEX, USA). […]
Precursor/product transitions (m/z) of 484/247 and 490/247 were monitored for BXA and internal standard, BXA-racemate-d4^18O, respectively. […]
The plasma concentrations of BXA for each individual ferret were calculated by Analyst software (AB SCIEX, USA). The mean value and standard deviation were also calculated using individual data by Microsoft Excel (Microsoft Co., USA).

Q: What does the source list for `O=C1c2c(O)c(=O)ccn2N([C@@H]2c3ccccc3SCc3c2ccc(F)c3F)[C@@H]2COCCN12` [baloxavir, baloxavir acid]?
A: concentration at 48 h ([1]; Example 2 Experiment 1, 48 hours post treatment): 10.2 ± 2.8 ng/mL; concentration at 72 h ([1]; Example 2 Experiment 2, 72 hr post treatment): 12.5 ± 2.4 ng/mL; concentration at 72 h ([1]; Example 2 Experiment 3, 72 hr post treatment (so in the source)): 24.5 ± 4.03 ng/mL; concentration at 168 h ([2]; plasma, subcutaneous, single s.c. suspension 4 mg/kg, 168 hours postdose, read-out: mean plasma concentration at last sampling point): 9.08 ng/mL; time at which mean plasma concentration reached the maximum ([2]; single s.c. suspension 4 mg/kg): 3 hours postdose; mean plasma concentration, maximum ([2]; single s.c. suspension 4 mg/kg (4 locations, 1 mg/kg per location), 3 hours postdose): 26.1 ng/mL
